Measured values as given in patent EP1080070B1, “ANTIANGIOGENIC DRUG TO TREAT CANCER, ARTHRITIS AND RETINOPATHY” (ABBOTT LABORATORIES, priority 1998, dated 1999).
Structures can show the parent of a compound that is named as a salt.

test system: Human Microvascular Endothelial Cells (HMVEC); assay: Endothelial cell migration assay (modified Boyden chamber, bFGF-stimulated); format: cell-based; conditions: Homo sapiens, HMVEC; 200 nM test compound; bFGF in upper chamber, 4 hours at 37 °C; percent inhibition of migration compared to a positive control
Method: The endothelial cell migration assay was performed essentially as described by Polverini, P.J. et al., Methods Enzymol, 198: 440-450 (1991). Briefly, Human Microvascular Endothelial Cells (HMVEC) were starved overnight in DMEM containing 0.1% bovine serum albumin (BSA). Cells were then harvested with trypsin and resuspended in DMEM with 0.1% BSA at a concentration of 1.5 x 10^6 cells/mL. Cells were added to the bottom of a 48-well modified Boyden chamber (Nucleopore Corporation, Cabin John, MD). The chamber was assembled and inverted, and cells were allowed to attach for 2 hours at 37 °C to polycarbonate chemotaxis membranes (5 µm pore size) that had been soaked in 0.1% gelatin overnight and dried. The chamber was then reinverted and basic fibroblast growth factor (bFGF) and test substances were added to the wells of the upper chamber (to a total volume of 50 µL); the apparatus was then incubated for 4 hours at 37 °C. Membranes were recovered, fixed and stained (DiffQuick, Fisher Scientific, Pittsburgh, PA) and the number of cells that had migrated to the upper chamber per 10 high power fields were counted. Background migration to DMEM +0.1% BSA was subtracted and the data reported as the number of cells migrated per 10 high power fields (400X) or when results from multiple experiments were combined, as the percent inhibition of migration compared to a positive control.

First: CC(C)(C)OC(=O)C[C@H](NC(=O)Cc1ccc(N)cc1)C(=O)OC(C)(C)C [Example 19, N-[(4-aminophenyl)acetyl]-L-aspartic acid bis(1,1-dimethylethyl) ester]
Second: CCOC(=O)Cc1ccc(NC(=O)[C@H](CCCCN)NC(=O)OC(C)(C)C)cc1 [Example 25, (S)-ethyl 4-[[6-amino-2-[[(1,1-dimethylethoxy)carbonyl]amino]-1-oxohexyl]amino]benzeneacetate monohydrochloride]
The inhibition at 0.2 µM of the first is lower: 32% for the first, 38% for the second.

CC(C)(C)OC(=O)N[C@@H](CCCCN)C(=O)Nc1ccc(C(=O)O)c(-c2cccc(O)c2)c1 [Example 31, 5-(((2S)-6-amino-2-((tert-butoxycarbonyl)amino)hexanoyl)amino)-3'-hydroxy(1,1'-biphenyl)-2-carboxylic acid] and COC(=O)c1ccc(NC(=O)[C@@H](CCCCN)NC(=O)OC(C)(C)C)cc1-c1cccc(O)c1 [Example 9, (R)-methyl 4-[[6-amino-2-[[(1,1-dimethylethoxy)carbonyl]amino]-1-oxohexyl]amino]-2-(3-hydroxyphenyl)benzoate] cannot be ordered by inhibition at 0.2 µM: over 95% for the first, over 95% for the second.

Going from CC(=O)N[C@@H](CCCCN)C(=O)Nc1ccc(C(=O)N[C@@H](CC(=O)O)C(N)=O)c(-c2ccc(O)cc2)c1 [Example 28, (3S)-3-(((5-(((2S)-2-(acetylamino)-6-aminohexanoyl)amino)-4'-hydroxy(1,1'-biphenyl)-2-yl)carbonyl)amino)-4-amino-4-oxobutanoic acid] to CC(=O)NC(CCCCN)C(=O)Nc1ccc(C(=O)N[C@@H](CC(=O)O)C(N)=O)c(-c2cccc(O)c2)c1 (stereo partly drawn) [Example 16, (S)-N-[4-[[2-(acetylamino)-6-amino-1-oxohexyl]amino]-2-(3-hydroxyphenyl)benzoyl]-L-α-asparagine], the inhibition at 0.2 µM rises from 59% to 86%.

Compared with COC(=O)c1ccc(NC(=O)[C@H](CCCCN)NC(C)=O)cc1-c1cccc(O)c1 [Example 14, (S)-methyl 4-[[2-(acetylamino)-6-amino-1-oxohexyl]amino]-2-(3-hydroxyphenyl)benzoate], CC(=O)N[C@@H](CCCCN)C(=O)Nc1ccc(C(=O)O)c(-c2cccc(O)c2)c1 [Example 15, (S)-4-[[2-(acetylamino)-6-amino-1-oxohexyl)amino]-2-(3-hydroxyphenyl)benzoic acid] is higher in inhibition at 0.2 µM: 60% for the first, 64% for the second.

COC(=O)c1ccc(NC(=O)[C@H](CCCCN)NC(=O)OC(C)(C)C)cc1-c1ccc(O)cc1 [Example 27, methyl 5-(((2S)-6-amino-2-((tert-butoxycarbonyl)amino)hexanoyl)amino)-4'-hydroxy(1,1'-biphenyl)-2-carboxylate] showed an inhibition at 0.2 µM of 28%.

same assay, conditions: bFGF in upper chamber, 4 hours at 37 °C, percent inhibition of migration compared to a positive control

Going from COC(=O)c1ccc(NC(=O)[C@H](CCCCNC(=O)OCc2ccccc2)NC(C)=O)cc1-c1cccc(OCc2ccccc2)c1 [Example 12, (S)-methyl 4-[[2-(acetylamino)-6-[[(phenylmethoxy)carbonyl]amino]-1-oxohexyl]amino]2-[(3-(phenylmethoxy)phenyl benzoate] to NC(CCCCNC(=O)OCc1ccccc1)C(=O)Nc1ccc(CC(=O)N[C@@H](CC(=O)O)C(=O)O)cc1 (some centres unmarked) [Example 20], the “% inhibition at 200 nM test compound” value rises from 29% to 34%.

Compared with COC(=O)c1ccc(NC(=O)[C@@H](CCCCN)NC(=O)OC(C)(C)C)cc1-c1ccccc1O [Example 10, (R)-methyl 4-[[6-amino-2-[[(1,1-dimethylethoxy)carbonyl]amino]-1-oxohexyl]amino]-2-(2-hydroxypheal)benzoate], CC(=O)NC(CCCCN)C(=O)Nc1ccc(C(=O)N[C@@H](CC(N)=O)C(=O)O)cc1 (stereo partly drawn) [Example 18, (S)-N-[4-[[2-(acelylainino)-6-amino-1-oxohexyl]amino]benzoyl]-L-α-asparagine] is higher in “% inhibition at 200 nM test compound” value: 80% for the first, 90% for the second.

With CC(=O)NC(CCCCN)C(=O)Nc1ccc(C(=O)N[C@@H](CC(N)=O)C(=O)O)c(-c2ccccc2)c1 (some centres unmarked) [Example 17] the “% inhibition at 200 nM test compound” value was over 95%.
